Results taken from US8883826B2, “Alkynyl derivatives as modulators of metabotropic glutamate receptors” (Addex Pharma SA, priority 2004, dated 2014).

Target: T1, mGluR5 (Rattus norvegicus, UniProt P31424)
T1 construct: tissue Charles River Laboratories; host or cells: rat brain cortex membranes (Sprague-Dawley)
Assay: mGluR5 binding assay ([3H]-MPEP radioligand competition)
Details: competition with 3 nM [3H]-MPEP, rat brain cortical membranes, 1 h at 4 °C; mean of at least three independent experiments in duplicate
Outline: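 Rat cortical membranes (50 μg) were incubated 1 h at 4 °C with 3 nM [3H]-MPEP and compound (0.003 nM-30 μM, 8 points) in HEPES buffer pH 7.4 with Mg2+, Ca2+ and NaCl. 30 μM MPEP defined non-specific binding, and bound label was counted after filtration. IC50 came from non-linear regression, as the mean of ≥3 experiments run in duplicate.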

T1 sequence (P31424 21-1203): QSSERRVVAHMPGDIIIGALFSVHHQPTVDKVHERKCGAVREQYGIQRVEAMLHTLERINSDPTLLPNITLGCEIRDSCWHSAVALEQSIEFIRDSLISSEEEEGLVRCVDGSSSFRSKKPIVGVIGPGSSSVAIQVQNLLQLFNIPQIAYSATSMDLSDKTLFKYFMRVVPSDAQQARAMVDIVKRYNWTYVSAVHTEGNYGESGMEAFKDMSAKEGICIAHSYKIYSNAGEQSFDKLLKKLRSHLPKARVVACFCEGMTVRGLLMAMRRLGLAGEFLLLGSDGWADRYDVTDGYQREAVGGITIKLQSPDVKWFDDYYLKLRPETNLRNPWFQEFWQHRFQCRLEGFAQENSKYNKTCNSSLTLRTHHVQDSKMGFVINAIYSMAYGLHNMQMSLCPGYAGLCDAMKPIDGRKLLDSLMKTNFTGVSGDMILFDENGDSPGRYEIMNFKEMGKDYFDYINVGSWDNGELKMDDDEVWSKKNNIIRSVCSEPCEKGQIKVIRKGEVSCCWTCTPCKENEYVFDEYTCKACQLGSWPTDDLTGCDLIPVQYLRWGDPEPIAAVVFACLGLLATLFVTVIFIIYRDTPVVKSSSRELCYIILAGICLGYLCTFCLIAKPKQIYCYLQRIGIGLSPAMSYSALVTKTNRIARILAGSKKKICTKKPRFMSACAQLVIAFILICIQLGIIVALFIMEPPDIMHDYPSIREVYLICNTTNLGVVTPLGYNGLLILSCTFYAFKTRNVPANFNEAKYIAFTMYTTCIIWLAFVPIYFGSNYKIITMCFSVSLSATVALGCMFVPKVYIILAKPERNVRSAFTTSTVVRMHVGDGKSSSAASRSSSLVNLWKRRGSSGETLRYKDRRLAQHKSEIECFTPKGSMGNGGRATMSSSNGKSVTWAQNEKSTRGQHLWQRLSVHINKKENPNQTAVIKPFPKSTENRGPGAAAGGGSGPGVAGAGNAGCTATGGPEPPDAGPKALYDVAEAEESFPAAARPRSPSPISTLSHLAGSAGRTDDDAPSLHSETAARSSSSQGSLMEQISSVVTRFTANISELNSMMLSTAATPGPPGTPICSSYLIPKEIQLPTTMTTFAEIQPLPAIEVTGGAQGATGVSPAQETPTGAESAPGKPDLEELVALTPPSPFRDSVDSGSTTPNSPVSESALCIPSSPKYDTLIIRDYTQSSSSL

| SMILES | IC50 [µM] |
| --- | --- |
| Cc1ccccc1-c1cnn(CCC#Cc2cccc(CF)n2)c1 [Example 143, 2-(Fluoromethyl)-6-(4-(4-o-tolyl-1H-pyrazol-1-yl)but-1-ynyl)pyridine] | < 10 |
| FCc1cccc(C#CCCn2cc(-c3ccc(F)cc3)cn2)n1 [Example 144, 2-(Fluoromethyl)-6-(4-(4-(4-fluorophenyl)-1H-pyrazol-1-yl)but-1-ynyl)pyridine] | < 10 |
| FCc1cccc(C#CCCc2cnc3cc(F)ccc3n2)n1 [Example 145, 6-Fluoro-2-(4-(6-(fluoromethyl)pyridin-2-yl)but-3-ynyl)quinoxaline] | < 0.05 |
| Clc1cccc2nn(CCC#Cc3ccccn3)nc12 [Example 146, 4-Chloro-2-(4-(pyridin-2-yl)but-3-ynyl)-2H-benzo[d][1,2,3]triazole] | < 0.05 |
| FCc1cccc(C#CCCn2nc3cccc(Cl)c3n2)n1 [Example 147, 4-Chloro-2-(4-(6-(fluoromethyl)pyridin-2-yl)but-3-ynyl)-2H-benzo[d][1,2,3]triazole] | < 0.05 |
| FCc1cccc(C#CCCn2cc3c(F)cccc3n2)n1 [Example 149, 4-Fluoro-2-(4-(6-(fluoromethyl)pyridin-2-yl)but-3-ynyl)-2H-indazole] | < 0.05 |
| Clc1cccc2nn(CCC#Cc3ccccn3)cc12 [Example 150, 4-Chloro-2-(4-(pyridin-2-yl)but-3-ynyl)-2H-indazole] | < 0.05 |
| FCc1cccc(C#CCCn2cc3ccc(F)cc3n2)n1 [Example 151, 6-Fluoro-2-(4-(6-(fluoromethyl)pyridin-2-yl)but-3-ynyl)-2H-indazole] | < 0.05 |
| FCc1cccc(C#CCCn2cc3c(Cl)cccc3n2)n1 [Example 152, 4-Chloro-2-(4-(6-(fluoromethyl)pyridin-2-yl)but-3-ynyl)-2H-indazole] | < 0.05 |
| FCc1cccc(C#CCCn2cc3cccc(F)c3n2)n1 [Example 155, 7-Fluoro-2-(4-(6-(fluoromethyl)pyridin-2-yl)but-3-ynyl)-2H-indazole] | < 0.05 |
| Cn1ccc(C#CCCn2nc3cccc(Cl)c3n2)n1 [Example 156, 4-Chloro-2-(4-(1-methyl-1H-pyrazol-3-yl)but-3-ynyl)-2H-benzo[d][1,2,3]triazole] | < 0.05 |
| Nc1cccc(C#CCCn2nc3cc(F)cc(F)c3n2)n1 [Example 157, 6-(4-(4,6-Difluoro-2H-benzo[d][1,2,3]triazol-2-yl)but-1-ynyl)pyridin-2-amine] | < 10 |
| C(#Cc1ccccn1)CCn1ccc(-c2ccccc2)n1 [Example 159, 2-(4-(3-Phenyl-1H-pyrazol-1-yl)but-1-ynyl)pyridine] | < 10 |
| O=[N+]([O-])c1cccc2nn(CCC#Cc3ccccn3)nc12 [Example 160, 4-Nitro-2-(4-(pyridin-2-yl)but-3-ynyl)-2H-benzo[d][1,2,3]triazole] | < 10 |
| O=[N+]([O-])c1cccc2nn(CCC#Cc3cccc(CF)n3)nc12 [Example 161, 2-(4-(6-(Fluoromethyl)pyridin-2-yl)but-3-ynyl)-4-nitro-2H-benzo[d][1,2,3]triazole] | < 10 |
| Cc1cccc2nn(CCC#Cc3ccccn3)nc12 [Example 163, 4-Methyl-2-(4-(pyridin-2-yl)but-3-ynyl)-2H-benzo[d][1,2,3]triazole] | < 0.05 |
| Cc1cccc2nn(CCC#Cc3cccc(CF)n3)nc12 [Example 164, 2-(4-(6-(Fluoromethyl)pyridin-2-yl)but-3-ynyl)-4-methyl-2H-benzo[d][1,2,3]triazole] | < 0.05 |
| Cc1ccc2nn(CCC#Cc3cccc(CF)n3)nc2c1 [Example 165, 2-(4-(6-(Fluoromethyl)pyridin-2-yl)but-3-ynyl)-5-methyl-2H-benzo[d][1,2,3]triazole] | < 0.05 |
| Cc1ccc2nn(CCC#Cc3ccccn3)nc2c1 [Example 166, 5-Methyl-2-(4-(pyridin-2-yl)but-3-ynyl)-2H-benzo[d][1,2,3]triazole] | < 0.5 |
| Fc1ccc(-c2ccnn2CCC#Cc2ccccn2)cc1 [Example 171, 2-(4-(5-(4-Fluorophenyl)-1H-pyrazol-1-yl)but-1-ynyl)pyridine] | < 10 |
| FC(CC#Cc1ccccn1)c1cnc2ccccc2n1 (stereo not shown) [Example 172, 2-(1-Fluoro-4-(pyridin-2-yl)but-3-ynyl)quinoxaline] | < 10 |
| O=CNc1cccc(C#CCCn2nc3ccccc3n2)n1 [Example 175, N-(6-(4-(2H-Benzo[d][1,2,3]triazol-2-yl)but-1-ynyl)pyridin-2-yl)formamide] | < 10 |
| Cc1nc(C#CCCn2nc3cccc(Cl)c3n2)cn1C [Example 176, 4-Chloro-2-(4-(1,2-dimethyl-1H-imidazol-4-yl)but-3-ynyl)-2H-benzo[d][1,2,3]triazole] | < 10 |
| Cc1ccc2nn(CCC#Cc3ccccn3)nc2c1C [Example 177, 4,5-Dimethyl-2-(4-(pyridin-2-yl)but-3-ynyl)-2H-benzo[d][1,2,3]triazole] | < 10 |
| Cc1ccc2nn(CCC#Cc3cccc(CF)n3)nc2c1C [Example 178, 2-(4-(6-(Fluoromethyl)pyridin-2-yl)but-3-ynyl)-4,5-dimethyl-2H-benzo[d][1,2,3]triazole] | < 10 |

| SMILES | IC50 [µM] |
| --- | --- |
| Clc1cccc(C#CCCn2nc3ccccc3n2)n1 [Example 180, 2-(4-(6-Chloropyridin-2-yl)but-3-ynyl)-2H-benzo[d][1,2,3]triazole] | < 10 |
| Cc1nc2ccccc2nc1CCC#Cc1cccc(CF)n1 [Example 181, 2-(4-(6-(Fluoromethyl)pyridin-2-yl)but-3-ynyl)-3-methylquinoxaline] | < 10 |
| CC(F)c1cccc(C#CCCn2nc3ccccc3n2)n1 (stereo not shown) [Example 182, 2-(4-(6-(1-Fluoroethyl)pyridin-2-yl)but-3-ynyl)-2H-benzo[d][1,2,3]triazole] | < 10 |
| O=C(NCCC#Cc1cccc(CF)n1)c1c(Cl)cccc1Cl [Example 189, 2,6-Dichloro-N-(4-(6-(fluoromethyl)pyridin-2-yl)but-3-ynyl)benzamide] | < 10 |
| Cn1c(CCC#Cc2cccc(CF)n2)nc2cccc(Cl)c21 [Example 191, 7-Chloro-2-(4-(6-(fluoromethyl)pyridin-2-yl)but-3-ynyl)-1-methyl-1H-benzo[d]imidazole] | < 10 |
| Cn1c(CCC#Cc2ccccn2)nc2cccc(Cl)c21 [Example 192, 7-Chloro-1-methyl-2-(4-(pyridin-2-yl)but-3-ynyl)-1H-benzo[d]imidazole] | < 0.5 |
| CC(C)n1c(CCC#Cc2ccccn2)nc2ccccc21 [Example 194, 1-Isopropyl-2-(4-(pyridin-2-yl)but-3-ynyl)-1H-benzo[d]imidazole] | < 10 |
| Cn1c(CCC#Cc2ccccn2)nc2cc(F)ccc21 [Example 197, 5-Fluoro-1-methyl-2-(4-(pyridin-2-yl)but-3-ynyl)-1H-benzo[d]imidazole] | < 10 |
| O=c1ccccn1CCC#Cc1ccccn1 [Example 198, 1-(4-(Pyridin-2-yl)but-3-ynyl)pyridin-2(1H)-one] | < 10 |
| CN(CCC#Cc1ccccn1)C(=O)c1cccc(F)c1 [Example 200, 3-Fluoro-N-methyl-N-(4-(pyridin-2-yl)but-3-ynyl)benzamide] | < 10 |
| CN(CCC#Cc1ccccn1)C(=O)c1ccccc1C(F)(F)F [Example 202, N-Methyl-N-(4-(pyridin-2-yl)but-3-ynyl)-2-(trifluoromethyl)benzamide] | < 10 |
| CN(CCC#Cc1ccccn1)C(=O)c1ccccc1Cl [Example 204, 2-Chloro-N-methyl-N-(4-(pyridin-2-yl)but-3-ynyl)benzamide] | < 10 |
| CN(CCC#Cc1ccccn1)C(=O)c1cccc(Cl)c1 [Example 205, 3-Chloro-N-methyl-N-(4-(pyridin-2-yl)but-3-ynyl)benzamide] | < 10 |
| CN(CCC#Cc1ccccn1)S(=O)(=O)c1ccc(F)cc1 [Example 206, 4-Fluoro-N-methyl-N-(4-(pyridin-2-yl)but-3-ynyl)benzenesulfonamide] | < 10 |
| CN(CCC#Cc1ccccn1)S(=O)(=O)c1ccccc1Cl [Example 207, 2-Chloro-N-methyl-N-(4-(pyridin-2-yl)but-3-ynyl)benzenesulfonamide] | < 10 |
| CN(CCC#Cc1cccc(CF)n1)C(=O)c1ccccc1Cl [Example 208, 2-Chloro-N-(4-(6-(fluoromethyl)pyridin-2-yl)but-3-ynyl)-N-methylbenzamide] | < 0.5 |
| CN(CCC#Cc1cccc(CF)n1)S(=O)(=O)c1ccccc1Cl [Example 209, 2-Chloro-N-(4-(6-(fluoromethyl)pyridin-2-yl)but-3-ynyl)-N-methylbenzene sulfonamide] | < 0.05 |
| CN(CCC#Cc1ccccn1)C(=O)c1ccccc1 [Example 211, N-Methyl-N-(4-(pyridin-2-yl)but-3-ynyl)benzamide] | < 10 |
| Cc1ccccc1C(=O)N(C)CCC#Cc1ccccn1 [Example 212, N,2-Dimethyl-N-(4-(pyridin-2-yl)but-3-ynyl)benzamide] | < 10 |
| CN(CCC#Cc1ccccn1)C(=O)c1ccccc1F [Example 213, 2-Fluoro-N-methyl-N-(4-(pyridin-2-yl)but-3-ynyl)benzamide] | < 10 |
| Cc1cccc(C(=O)N(C)CCC#Cc2ccccn2)c1 [Example 215, N,3-Dimethyl-N-(4-(pyridin-2-yl)but-3-ynyl)benzamide] | < 10 |
| COc1ccccc1C(=O)N(C)CCC#Cc1ccccn1 [Example 216, 2-Methoxy-N-methyl-N-(4-(pyridin-2-yl)but-3-ynyl)benzamide] | < 10 |
| CN(CCC#Cc1ccccn1)C(=O)c1cccc(F)c1F [Example 217, 2,3-Difluoro-N-methyl-N-(4-(pyridin-2-yl)but-3-ynyl)benzamide] | < 10 |
| CN(CCC#Cc1ccccn1)C(=O)c1c(Cl)cccc1Cl [Example 218, 2,6-Dichloro-N-methyl-N-(4-(pyridin-2-yl)but-3-ynyl)benzamide] | < 0.5 |
